According to patent publication US20260285850A1, “SUBSTITUTED OXAZOLIDINONES AND IMIDAZOLINONES AS HERBICIDES” (FMC CORPORATION, priority 2023, published 2026):

Key:
Assay type in all cases: in vivo
[1] = test system: ragweed (common ragweed, Ambrosia artemisiifolia); assay: Test A preemergence soil spray, visual injury rating 0-100; settings: 10 days, 0 = no effect, 100 = complete control
Procedure, shortened: (§1)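 Loam-sand pots got test material in surfactant-containing solvent, either as a directed soil spray before emergence or on plants at the one- to two-leaf stage. Visual injury (0-100) was read after ten greenhouse days.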

[2] = test system: oat, wild (wild oat, Avena fatua); assay: as above; settings: 10 days, 0 = no effect, 100 = complete control
Procedure, shortened: as §1

[3] = test system: barnyardgrass (Echinochloa crus-galli); assay: as above; settings: 10 days, 0 = no effect, 100 = complete control
Procedure, shortened: as §1

corn (Zea mays) [4] = assay: as above; settings: 10 days, 0 = no effect, 100 = complete control
Procedure, shortened: as §1

soybean (Glycine max) [5] = assay: as above; settings: 10 days, 0 = no effect, 100 = complete control
Procedure, shortened: as §1

kochia (Bassia scoparia) [6] = assay: as above; settings: 10 days, 0 = no effect, 100 = complete control
Procedure, shortened: as §1

[7] = test system: green foxtail (Setaria viridis); assay: as above; settings: 10 days, 0 = no effect, 100 = complete control
Procedure, shortened: as §1

[8] = test system: blackgrass (Alopecurus myosuroides); assay: as above; settings: 10 days, 0 = no effect, 100 = complete control
Procedure, shortened: as §1

[9] = test system: wheat (Triticum aestivum); assay: as above; settings: 10 days, 0 = no effect, 100 = complete control
Procedure, shortened: as §1

[10] = test system: palmer (palmer amaranth, palmer pigweed, Amaranthus palmeri); assay: as above; settings: 10 days, 0 = no effect, 100 = complete control
Procedure, shortened: as §1

[11] = test system: ryegrass, Italian (italian ryegrass, Lolium multiflorum); assay: Test A postemergence application, visual injury rating 0-100; settings: 10 days
Procedure, shortened: as §1

[12] = test system: ragweed (common ragweed, Ambrosia artemisiifolia); assay: as above; settings: 10 days
Procedure, shortened: as §1

[13] = test system: oat, wild (wild oat, Avena fatua); assay: as above; settings: 10 days
Procedure, shortened: as §1

[14] = test system: galium (catchweed bedstraw, Galium aparine); assay: as above; settings: 10 days
Procedure, shortened: as §1

[15] = test system: barnyardgrass (Echinochloa crus-galli); assay: as above; settings: 10 days
Procedure, shortened: as §1

corn (Zea mays) [16] = assay: as above; settings: 10 days
Procedure, shortened: as §1

soybean (Glycine max) [17] = assay: as above; settings: 10 days
Procedure, shortened: as §1

kochia (Bassia scoparia) [18] = assay: as above; settings: 10 days
Procedure, shortened: as §1

[19] = test system: green foxtail (Setaria viridis); assay: as above; settings: 10 days
Procedure, shortened: as §1

[20] = test system: blackgrass (Alopecurus myosuroides); assay: as above; settings: 10 days
Procedure, shortened: as §1

[21] = test system: wheat (Triticum aestivum); assay: as above; settings: 10 days
Procedure, shortened: as §1

[22] = test system: palmer (palmer amaranth, palmer pigweed, Amaranthus palmeri); assay: as above; settings: 10 days
Procedure, shortened: as §1

[23] = test system: horseweed (Erigeron canadensis); assay: as above; settings: 10 days
Procedure, shortened: as §1

[24] = test system: sedge, umbrella (small-flower umbrella sedge, Cyperus difformis); assay: Test B flooded paddy test, visual plant response rating 0-100; settings: 250 g ai/ha, Flood, applied to paddy water, evaluated after 13 days
Procedure, shortened: (§2)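 Treatment occurs at the 2-leaf stage by adding compound to floodwater standing 3 cm above the soil, a level kept for the whole test. Plants stay in the greenhouse 13 days before visual comparison with controls.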

[25] = test system: barnyardgrass (Echinochloa crusgalli); assay: as above; settings: 250 g ai/ha, Flood, applied to paddy water, evaluated after 13 days
Procedure, shortened: as §2

rice (Oryza sativa) = assay: as above; settings: 250 g ai/ha, Flood, applied to paddy water, evaluated after 13 days
Procedure, shortened: as §2

[26] = test system: ducksalad (Heteranthera limosa); assay: as above; settings: 250 g ai/ha, Flood, applied to paddy water, evaluated after 13 days
Procedure, shortened: as §2

[27] = 31 g ai/ha, postemergence, 0 = no effect, 100 = complete control
[28] = Postemergence, 125 g ai/ha, 0 is no effect, 100 is complete control

With `CC1(C(=O)NC2C=CC(C(=O)O)C2)CN(c2cc(F)cc(Cl)c2)C(=O)O1` (centres unmarked) [Compound 6] the “Ragweed plant response rating (0-100)” value ([1]; 31 g ai/ha) was 0, the “Ragweed plant response rating (0 to 100 scale)” value ([1]; 125 g ai/ha) was 40 and the “Oat, Wild plant response rating (0-100)” value ([2]; 31 g ai/ha) was 30. For the same compound, the “Oat, Wild plant response rating (0 to 100 scale)” value ([2]; 125 g ai/ha) was 90, the “Barnyardgrass plant response rating (0-100)” value ([3]; 31 g ai/ha) was 20 and the “Barnyardgrass plant response rating (0 to 100 scale)” value ([3]; 125 g ai/ha) was 100. For the same compound, the “Corn plant response rating (0-100)” value (corn (Zea mays) [4]; 31 g ai/ha) was 30, the “Corn plant response rating (0 to 100 scale)” value (corn (Zea mays) [4]; 125 g ai/ha) was 90 and the “Soybean plant response rating (0-100)” value (soybean (Glycine max) [5]; 31 g ai/ha) was 50. For the same compound, the “Soybean plant response rating (0 to 100 scale)” value (soybean (Glycine max) [5]; 125 g ai/ha) was 80, the “Kochia plant response rating (0-100)” value (kochia (Bassia scoparia) [6]; 31 g ai/ha) was 100 and the “Kochia plant response rating (0 to 100 scale)” value (kochia (Bassia scoparia) [6]; 125 g ai/ha) was 100. For the same compound, the “Foxtail, Green plant response rating (0-100)” value ([7]; 31 g ai/ha) was 50, the “Foxtail, Green plant response rating (0 to 100 scale)” value ([7]; 125 g ai/ha) was 100 and the “Blackgrass plant response rating (0-100)” value ([8]; 31 g ai/ha) was 30. For the same compound, the “Blackgrass plant response rating (0 to 100 scale)” value ([8]; 125 g ai/ha) was 60, the “Wheat plant response rating (0-100)” value ([9]; 31 g ai/ha) was 50 and the “Wheat plant response rating (0 to 100 scale)” value ([9]; 125 g ai/ha) was 90. The “Amaranth, Palmer plant response rating (0-100)” value ([10]; 31 g ai/ha) was 60, the “Amaranth, Palmer plant response rating (0 to 100 scale)” value ([10]; 125 g ai/ha) was 90 and the “Ryegrass, Italian plant response rating (0-100)” value [11, 27] was 80. The “Ryegrass, Italian plant response rating (0 to 100 scale)” value [11, 28] was 90, the “Ragweed plant response rating (0-100)” value [12, 27] was 60 and the “Ragweed plant response rating (0 to 100 scale)” value [12, 28] was 80. For the same compound, the “Oat, Wild plant response rating (0-100)” value [13, 27] was 90, the “Oat, Wild plant response rating (0 to 100 scale)” value [13, 28] was 100 and the “Galium plant response rating (0-100)” value [14, 27] was 80. For the same compound, the “Galium plant response rating (0 to 100 scale)” value [14, 28] was 80, the “Barnyardgrass plant response rating (0-100)” value [15, 27] was 100 and the “Barnyardgrass plant response rating (0 to 100 scale)” value [15, 28] was 100. For the same compound, the “Corn plant response rating (0-100)” value (corn (Zea mays) [16]; [27]) was 100, the “Corn plant response rating (0 to 100 scale)” value (corn (Zea mays) [16]; [28]) was 100 and the “Soybean plant response rating (0-100)” value (soybean (Glycine max) [17]; [27]) was 80. The “Soybean plant response rating (0 to 100 scale)” value (soybean (Glycine max) [17]; [28]) was 80, the “Kochia plant response rating (0-100)” value (kochia (Bassia scoparia) [18]; [27]) was 80 and the “Kochia plant response rating (0 to 100 scale)” value (kochia (Bassia scoparia) [18]; [28]) was 80. For the same compound, the “Foxtail, Green plant response rating (0-100)” value [19, 27] was 90, the “Foxtail, Green plant response rating (0 to 100 scale)” value [19, 28] was 90 and the “Blackgrass plant response rating (0-100)” value [20, 27] was 80. For the same compound, the “Blackgrass plant response rating (0 to 100 scale)” value [20, 28] was 90, the “Wheat plant response rating (0-100)” value [21, 27] was 90 and the “Wheat plant response rating (0 to 100 scale)” value [21, 28] was 90. The “Amaranth, Palmer plant response rating (0-100)” value [22, 27] was 90, the “Amaranth, Palmer / Pigweed, Palmer plant response rating (0 to 100 scale)” value [22, 28] was 90 and the “Horseweed plant response rating (0-100)” value [23, 27] was 40. The “Horseweed plant response rating (0 to 100 scale)” value [23, 28] was 90, the “Plant response rating, Sedge, Umbrella (0 to 100 scale, 0 is no effect and 100 is complete control)” value [24] was 95 and the “Plant response rating, Barnyardgrass (0 to 100 scale, 0 is no effect and 100 is complete control)” value [25] was 70. For the same compound, the “Plant response rating, Rice (0 to 100 scale, 0 is no effect and 100 is complete control)” value (rice (Oryza sativa)) was 35 and the “Plant response rating, Ducksalad (0 to 100 scale, 0 is no effect and 100 is complete control)” value [26] was 95.
